Experimental data as given in the supplement of paper PMC10307832.

How the values were obtained:
Experiment in all cases: relative viability (nuclei count vs DMSO), 5 days (fraction); higher = more cells survive
Vemurafenib + Luminespib = compound: CCCS(=O)(=O)Nc1ccc(F)c(C(=O)c2c[nH]c3ncc(-c4ccc(Cl)cc4)cc23)c1F [Vemurafenib] + CCNC(=O)c1noc(-c2cc(C(C)C)c(O)cc2O)c1-c1ccc(CN2CCOCC2)cc1 [Luminespib] (partner 0.01 µM)
Outline: (§1)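 Lung cancer cell lines were seeded in 1536-well plates and dosed by pin tool the next day, with either a single drug or a fixed anchor-drug dose combined with five library-drug doses (not always all listed) spaced in √10 steps. Five days later, one step fixed the cells and stained their nuclei (final 0.05% Triton X-100, 1% formaldehyde, 1 ug/ml Hoechst), and nuclei were counted on 4× images. Relative viability is the nuclei count in treated wells divided by the count in vehicle wells, and each value is the median of duplicate plates.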

Vemurafenib + Olaparib = compound: CCCS(=O)(=O)Nc1ccc(F)c(C(=O)c2c[nH]c3ncc(-c4ccc(Cl)cc4)cc23)c1F [Vemurafenib] + O=C(c1cc(Cc2n[nH]c(=O)c3ccccc23)ccc1F)N1CCN(C(=O)C2CC2)CC1 [Olaparib] (partner 8 µM)
Outline: as §1

OSI-027 + Tozasertib = compound: COc1cccc2cc(-c3nc([C@H]4CC[C@H](C(=O)O)CC4)n4ncnc(N)c34)[nH]c12 [OSI-027] + Cc1cc(Nc2cc(N3CCN(C)CC3)nc(Sc3ccc(NC(=O)C4CC4)cc3)n2)n[nH]1 [Tozasertib] (partner 0.1 µM)
Outline: as §1

Alpelisib + Lapatinib = compound: Cc1nc(NC(=O)N2CCC[C@H]2C(N)=O)sc1-c1ccnc(C(C)(C)C(F)(F)F)c1 [Alpelisib] + CS(=O)(=O)CCNCc1ccc(-c2ccc3ncnc(Nc4ccc(OCc5cccc(F)c5)c(Cl)c4)c3c2)o1 [Lapatinib] (partner 2 µM)
Outline: as §1

Cell Line | relative viability (Vemurafenib + Luminespib; first compound 0.03162 µM) | relative viability (Vemurafenib + Luminespib; first compound 0.1 µM) | relative viability (Vemurafenib + Luminespib; first compound 0.3162 µM) | relative viability (Vemurafenib + Luminespib; first compound 1 µM) | relative viability (Vemurafenib + Olaparib; first compound 0.03162 µM) | relative viability (Vemurafenib + Olaparib; first compound 0.1 µM) | relative viability (Vemurafenib + Olaparib; first compound 1 µM) | relative viability (OSI-027 + Tozasertib; first compound 0.01 µM) | relative viability (OSI-027 + Tozasertib; first compound 0.03162 µM) | relative viability (OSI-027 + Tozasertib; first compound 0.1 µM) | relative viability (OSI-027 + Tozasertib; first compound 0.3162 µM) | relative viability (OSI-027 + Tozasertib; first compound 1 µM) | relative viability (Alpelisib + Lapatinib; first compound 0.04 µM) | relative viability (Alpelisib + Lapatinib; first compound 0.1265 µM) | relative viability (Alpelisib + Lapatinib; first compound 0.4 µM) | relative viability (Alpelisib + Lapatinib; first compound 1.265 µM) | relative viability (Alpelisib + Lapatinib; first compound 4 µM) | relative viability (Vemurafenib + Olaparib; first compound 0.3162 µM)
LU99A | 0.224 | 0.282 | 0.259 | 0.288 | 0.245 | 0.259 | 0.264 | 0.249 | 0.302 | 0.252 | 0.239 | 0.175 | 0.873 | 0.917 | 1.02 | 0.666 | 0.56 | 
LXF-289 | 0.647 | 0.584 | 0.661 | 0.689 | 1.02 | 1.06 | 1 | 0.17 | 0.209 | 0.201 | 0.195 | 0.133 | 0.865 | 0.921 | 0.958 | 0.832 | 0.956 | 1.09
NCI-H23 | 0.194 | 0.211 | 0.166 | 0.228 | 0.309 | 0.326 | 0.343 | 0.636 | 0.269 | 0.34 | 0.413 | 0.306 | 1.09 | 0.845 | 1.04 | 0.621 | 0.839 | 0.295
NCI-H322M | 0.861 |  |  | 0.825 | 0.728 |  | 0.726 | 0.488 | 0.485 | 0.413 | 0.397 | 0.307 | 0.535 | 0.666 | 0.518 | 0.361 | 0.423 | 0.93
NCI-H358 | 0.27 |  | 0.504 | 0.267 | 0.539 | 0.745 | 0.521 | 0.105 | 0.0898 | 0.0968 | 0.0931 | 0.0733 | 0.442 | 0.382 | 0.389 | 0.297 | 0.368 | 0.625
NCI-H460 | 0.0379 | 0.0333 | 0.0345 | 0.0293 | 0.44 | 0.408 | 0.39 | 0.511 | 0.338 | 0.469 | 0.593 | 0.278 | 1.02 | 0.948 | 1.03 | 0.662 | 0.439 | 
NCI-H520 | 0.187 | 0.231 | 0.221 | 0.233 | 0.284 | 0.337 | 0.359 | 0.429 | 0.385 | 0.396 | 0.339 | 0.193 | 0.712 | 0.765 | 0.906 | 0.669 | 0.631 | 0.364
NCI-H596 | 0.984 | 1.1 | 1.01 | 0.958 | 0.742 | 0.657 | 0.719 | 0.999 | 0.804 | 0.859 | 0.811 | 0.47 | 0.98 | 1.02 | 0.825 | 0.54 | 0.413 | 0.63
NCI-H647 | 0.157 | 0.165 | 0.138 | 0.212 | 0.605 | 0.469 | 0.634 | 0.401 | 0.291 | 0.292 | 0.433 | 0.147 | 0.959 | 1.14 | 1.35 | 0.99 | 0.756 | 0.513
NCI-H650 | 0.72 | 0.852 |  | 0.637 | 0.385 | 0.368 | 0.378 | 0.711 | 0.738 | 0.637 | 0.605 | 0.411 | 0.84 | 0.538 | 0.876 | 0.683 | 0.869 | 0.305
NCI-H661 | 0.979 | 0.806 | 0.897 | 0.953 | 0.686 | 0.752 | 0.709 | 0.357 | 0.374 | 0.362 | 0.344 | 0.351 | 0.471 | 0.475 | 0.525 | 0.383 | 0.361 | 0.769
NCI-H727 | 0.309 |  | 0.313 | 0.353 | 0.748 | 0.774 | 0.51 | 0.584 | 0.65 | 0.716 | 0.725 | 0.456 | 0.831 | 0.766 | 0.906 | 0.578 | 0.443 | 0.726
NCI-H838 | 0.291 | 0.349 |  | 0.352 | 0.746 | 0.764 | 0.821 | 0.307 | 0.482 | 0.264 | 0.26 | 0.214 | 0.877 | 1.03 | 1.01 | 0.774 | 0.696 | 0.697
NCI-H1355 | 0.664 | 0.662 | 0.696 | 0.672 | 0.722 | 0.671 | 0.74 | 0.546 | 0.492 | 0.541 | 0.461 | 0.361 | 0.963 | 0.961 | 0.985 | 0.918 | 0.806 | 0.828
NCI-H1395 | 0.679 | 0.445 |  | 0.555 | 0.405 | 0.506 | 0.482 | 0.675 | 0.718 | 0.683 | 0.67 | 0.611 | 0.88 | 0.909 | 1.15 | 0.75 | 0.921 | 0.429
NCI-H1437 | 1.09 | 1.07 | 1.2 | 1.12 | 0.629 | 0.589 | 0.637 | 0.418 | 0.379 | 0.456 | 0.413 | 0.318 | 0.756 | 0.91 | 0.772 | 0.616 | 0.602 | 0.615
NCI-H1650 |  | 0.205 |  | 0.215 | 0.677 | 0.626 | 0.791 | 0.454 | 0.347 | 0.36 | 0.424 | 0.355 | 0.718 | 0.738 | 0.806 | 0.62 | 0.794 | 0.844
NCI-H1651 | 0.91 | 1.05 | 0.946 | 0.84 | 0.167 | 0.203 | 0.169 | 0.669 | 0.642 | 0.801 | 0.692 | 0.591 | 0.773 | 0.803 | 0.943 | 0.646 | 0.618 | 0.193
NCI-H1666 | 0.933 | 0.877 | 1.02 | 0.966 | 0.715 | 0.77 | 0.782 | 0.611 | 0.686 | 0.646 | 0.629 | 0.537 | 0.668 | 0.381 | 0.682 | 0.475 | 0.356 | 0.769
NCI-H1734 | 0.196 | 0.183 | 0.233 | 0.2 | 0.55 | 0.62 | 0.615 | 0.299 | 0.271 | 0.265 | 0.222 | 0.24 | 1.09 | 0.989 | 1.11 | 0.771 | 0.373 | 0.611
NCI-H1755 | 0.442 | 0.574 | 0.332 | 0.462 | 0.806 | 0.898 | 0.8 | 0.532 | 0.559 | 0.524 | 0.484 | 0.409 | 1.03 | 0.962 | 1.11 | 0.911 | 0.851 | 0.907
NCI-H1793 | 0.16 |  | 0.173 | 0.166 | 0.778 | 0.497 | 1.06 | 0.284 | 0.313 | 0.28 | 0.239 | 0.209 | 0.647 | 0.642 | 0.637 | 0.513 | 0.613 | 0.879
NCI-H1915 | 0.698 | 0.727 | 0.795 | 0.636 | 0.263 | 0.25 | 0.244 | 0.488 | 0.445 | 0.525 | 0.475 | 0.404 | 1.01 | 0.979 | 0.957 | 0.949 | 0.944 | 0.242
NCI-H1944 | 0.665 | 0.601 | 0.736 | 0.663 | 0.426 |  | 0.359 | 0.239 | 0.251 | 0.22 | 0.221 | 0.175 | 0.815 | 1.04 | 0.763 | 0.621 | 0.451 | 0.384
NCI-H1975 | 0.295 | 0.219 |  | 0.287 | 0.728 | 0.755 | 0.793 | 1 | 0.778 | 0.746 | 0.66 | 0.478 | 0.874 | 0.862 | 0.889 | 0.619 | 0.483 | 0.727
NCI-H1993 | 0.465 |  | 0.773 | 0.86 | 0.976 |  | 1.12 | 0.574 | 0.56 | 0.546 | 0.49 | 0.456 | 0.775 | 0.676 | 0.913 | 0.774 | 0.711 | 1.26
NCI-H2009 | 0.93 | 0.912 | 0.861 | 0.921 | 0.61 | 0.661 | 0.652 | 0.759 | 0.621 | 0.717 | 0.755 | 0.444 | 0.99 | 1 | 1.11 | 0.89 | 0.889 | 0.612
NCI-H2023 | 0.731 | 0.628 | 0.827 | 0.766 | 0.463 | 0.42 | 0.479 | 0.424 | 0.319 | 0.352 | 0.348 | 0.244 | 0.717 | 0.617 | 0.312 | 0.58 | 0.495 | 0.483
NCI-H2085 | 0.451 | 0.425 | 0.423 | 0.492 | 0.737 | 0.791 | 0.858 | 0.785 | 0.654 | 0.741 | 0.784 | 0.568 | 0.742 | 0.624 | 0.839 | 0.635 | 0.623 | 0.632
NCI-H2087 | 0.166 | 0.185 |  | 0.162 | 0.506 | 0.588 | 0.47 | 0.228 | 0.254 | 0.257 | 0.234 | 0.188 | 1.02 | 0.978 | 1.26 | 0.703 | 0.97 | 0.504
